“Also recorded” adds a separate entry of the source. Marks after values point to notes of the source that are not given here.
Experiments:
[1] = system: lymphocyte DNA; test: Hydrogen peroxide induced lymphocyte DNA damage, comet assay; assay type: in vivo, human; conditions: for hydrogen peroxide induced lymphocyte DNA damage: DNA challenged with 10 μM H2O2 for 10 min, Means ± SD; for H2O2 induced DNA damage compared to day 1: after 56-day intervention (d 57), H2O2 10 micromolar for 10 min, p<0.05
Method: (§1) A study was undertaken to evaluate the effectiveness of the composition of the present invention and its effect on the patients. Thirty-seven healthy non-smoking post-menopausal women (50˜70 yr) were randomly assigned to one of 5 groups, to take a daily dose of mixed carotenoids (β-carotene, lutein and lycopene, 4 mg each), or 12 mg of single carotenoid (β-carotene, lutein or lycopene), or placebo for 8 weeks. Plasma carotenoid concentrations were analyzed by an HPLC system with a C30 column, and lymphocyte DNA damage was determined by a single cell gel electrophoresis (comet) assay.
(§2) From the second day of intervention, subjects took either 1) placebo, 2) 4 mg of lutein, 4 mg of β-carotene and 4 mg of lycopene, 3) 12 mg of lutein, 4) 12 mg of β-carotene, or 5) 12 mg of lycopene. On study days 15, 29, 43, and 57, overnight fasting bloods (10 mL) were collected, and 1) plasma carotenoids, 2) antioxidant capacity in both the aqueous and lipid compartments, 3) lipid peroxidation, and 4) DNA damage will be measured in these samples. In addition, 70 mL of fasting blood was collected at days 1 and 57 for the analysis of gene expression profiling in peripheral blood mononuclear cells using high-density filter-based cDNA microarrays. On study day 57, an additional 3 ml of blood was collected to measure the hemoglobin level.
(§3) DNA breaks and oxidized pyrimidine bases were measured using the alkaline comet assay (Duthie et al Cancer Res 1996; 56:1291-1295). The comet assay, also called the Single Cell Gel Assay, was used to detect DNA damage and repair at the level of single cells. The Comet Assay is a rapid, sensitive test for DNA damage detection (e.g., single- and double-strand breaks, oxidative-induced base damage, and DNA-DNA/DNA-protein cross linking) by electrophoresis. The Comet Assay involves the following steps: 1. Slide preparation (i.e., mixing of cells with low melting agarose, and spread over glass microscope slides); 2. Lysis: (i.e., lysis of cell membrane and other proteins); 3. Unwinding of DNA; 4. Electrophoresis; 5. Neutralization; and 6. Staining and scoring. Cells embedded in agarose on a microscope slide are lysed with non-ionic detergent and high salt, leaving supercoiled matrix-attached DNA in a nucleoid. Under alkaline electrophoresis, DNA with breaks extends towards the anode, forming a “comet tail” when viewed by fluorescence microscopy. The percentage of total fluorescence in the tail is linearly related to DNA break frequency up to about 2 per 10^9 daltons.
(§4) Lymphocyte separation: Lymphocytes were separated immediately after blood samples were collected. Lymphocytes were isolated by density gradient sedimentation (Histopaque 1077, Sigma diagnostic, St. Louis, USA) and frozen in 50% fetal calf serum, 40% culture medium (RPMI 1640, Sigma diagnostic, St. Louis, USA ) and 10% dimethyl sulfoxide to −-80° C. at −1° C./min freezing rate before store in liquid nitrogen.
(§5) Cryopreserved lymphocytes recovery: Cells were recovered by submerging in 37° C. water bath until last trace of ice has melted. Cells were transferred to prechilled 50% RPMI 1640 medium and 50% fetal calf serum and centrifuged at 200 g for 5 min at 4° C. Cells were resuspended in cold PBS and checked for viability (typically 95% viability) and cell number (typically 1×10^5 cells/mL). The lymphocytes of five time points (d1, 15, 29, 43 & 57) were recovered at the same time.
(§6) Alkaline single cell gel electrophoresis: DNA strand breaks were measured in lymphocytes with the alkaline single cell gel electrophoresis, comet assay, (Collins A R. Methods Mol Biol 2002; 203:163-77) with minor modifications. The endogenous DNA damage as well as hydrogen peroxide challenged DNA damage were determined by exposing the agarose embedded with cells to PBS or H2O2 in PBS (10 μM) for 10 min respectively.
(§7) Quantitation of DNA damage: The DNA damage was determined by visual image analysis (Collins A R et al. Methods Mol Biol 2002; 186:147-59). […]

[2] = system: lymphocyte DNA; test: Basal (endogenous) lymphocyte DNA damage, alkaline single cell gel electrophoresis (comet) assay; assay type: in vivo, human; conditions: for basal lymphocyte DNA damage: women 50-70 yr, mixed 4 mg each/d, single carotenoid 12 mg/d, Means ± SD; for basal DNA damage, percent of comet tail ratio (each day value divided by day 1): d 57, different from placebo p<0.005, FIG. 6; for basal (endogenous) DNA damage compared to day 1: day 15
Method: as §1, §2, §3, §4, §5, §6, §7

[3] = parameters: species or system human; conditions: in vivo
Method: as §1
Subjects (50-70 yr, n=37) were housed at the MRU for the first two days of the study. On the first day of the study, subjects were randomly assigned to take either 1) placebo, 2) 4 mg each of lutein, β-carotene and lycopene, 3) 4 mg of lutein, 4) 4 mg of β-carotene, or 5) 4 mg of lycopene with a meal containing 25 g of fat. Subjects were provided with a two-week supply of placebo or carotenoids along with instructions how to consume the supplements while being maintained with a low carotenoid diet on each sampling day (days 1, 15, 29 & 43). In particular, they were instructed to take the carotenoid supplements with their first meal of the day, and this food source should include 10 g of fat to insure maximum absorption of the carotenoid supplement. 10 mL of blood will be drawn at 0 (fasting), 2, 4, 6, 8, 10, 12 and 14 hours after the carotenoid dose to obtain information on the early kinetics of carotenoid absorption and tissue uptake. The subjects had the option to have an intravenous line inserted for blood drawing (I.V.). If they chose this option, 12 mL of blood was drawn for each sample and the first 2 mL of blood was discarded. Chylomicrons (the triglyceride-rich fraction of plasma) were isolated and analyzed for carotenoids to determine the plasma response kinetics in these 14 hr samples. Thereafter, subjects were discharged from the HNRC with a two-week supply of placebo or carotenoids along with instructions on how to consume the doses while being maintained on a low carotenoid diet.
as §2
Plasma carotenoid concentrations were measured by a HPLC system as previously described with minor modification (Yeum K J et al. Am J Clin Nutr 1996; 64:594-602). Plasma sample (200 μL) was extracted with 2 mL of chloroform:methanol (2: 1) followed by 3 mL of hexane. Samples were dried under nitrogen and resuspended in 75 μL ethanol:methyl tert-butyl ether (2:1) of which 25 μL was injected onto the HPLC. The HPLC system consisted of a Waters 2695 Separation Module, 2996 Photodiode Array Detector, a Waters 2475 Multi X Fluorescence Detector, a C30 carotenoid column (3 μm, 150×3.0 mm, YMC, Wilmington, N.C.), and a Waters Millenium 32 data station. The mobile phase was methanol:methyl tert-butyl ether:water (85:12:3 with 1.5% ammonium acetate in water; […]) and methanol:methyl tert-butyl ether:water (8:90:2 with 1% ammonium acetate in water; […]). The gradient procedure has been reported earlier (Yeum K J et al. Am J Clin Nutr 1996; 64:594-602). Results were adjusted by an internal standard containing echinenone and retinyl acetate. The CV for interassay (n=25) is 4% and intra assay Is 4% (n=9). […]

SMILES | hydrogen peroxide induced lymphocyte DNA damage ([1]; Day 01 (baseline)) | hydrogen peroxide induced lymphocyte DNA damage ([1]; Day 15) | hydrogen peroxide induced lymphocyte DNA damage ([1]; Day 29) | hydrogen peroxide induced lymphocyte DNA damage ([1]; Day 43) | hydrogen peroxide induced lymphocyte DNA damage ([1]; Day 57) | H2O2 induced DNA damage compared to day 1 [1] | basal lymphocyte DNA damage ([2]; Day 01 (baseline)) | basal lymphocyte DNA damage ([2]; Day 15) | basal lymphocyte DNA damage ([2]; Day 29) | basal lymphocyte DNA damage ([2]; Day 43) | basal lymphocyte DNA damage ([2]; Day 57) | basal DNA damage, percent of comet tail ratio (each day value divided by day 1) [2] | basal (endogenous) DNA damage compared to day 1 [2] | plasma lutein levels, change [3] | plasma lycopene concentrations, change [3] | plasma β-carotene levels, change [3]
CC1=C(/C=C/C(C)=C/C=C/C(C)=C/C=C/C=C(C)/C=C/C=C(C)/C=C/C2=C(C)CCCC2(C)C)C(C)(C)CCC1 [β-carotene] | 48.2 ± 6.1% | 44.5 ± 8.9% | 41.1 ± 6.2% | 44.2 ± 5.7% | 38.0 ± 4.8% | significantly improved; also recorded: significantly decreased | 12.4 ± 2.7 % | 9.7 ± 2.4^b % | 8.6 ± 2.9^a % | 9.4 ± 2.4^a % | 8.0 ± 1.8^b % | significantly decreased | significantly decreased | no increase | significantly lower levels | –
CC1=C[C@H](O)CC(C)(C)[C@H]1/C=C/C(C)=C/C=C/C(C)=C/C=C/C=C(C)/C=C/C=C(C)/C=C/C1=C(C)C[C@@H](O)CC1(C)C [Lutein, lutein] | 42.8 ± 6.8% | 43.5 ± 6.2% | 43.1 ± 5.6% | 41.5 ± 9.3% | 39.8 ± 8.4^a % | did not show any significant change | 10.6 ± 1.4% | 9.4 ± 2.1% | 9.5 ± 1.4% | 7.7 ± 1.5^b % | 7.1 ± 1.7*^c % | significantly decreased | – | – | significantly lower levels | did not show any increase
CC(C)=CCC/C(C)=C/C=C/C(C)=C/C=C/C(C)=C/C=C/C=C(C)/C=C/C=C(C)/C=C/C=C(\C)CCC=C(C)C [Lycopene, lycopene] | 50.5 ± 8.9 % | 49.2 ± 10.1% | 51.1 ± 3.5 % | 50.0 ± 6.5% | 42.5 ± 6.5^b % | significantly improved; also recorded: significantly decreased | 11.9 ± 2.6 % | 10.0 ± 3.5^a % | 9.0 ± 2.6^a % | 7.5 ± 1.9^b % | 6.8 ± 1.6*^c % | significantly decreased | significantly decreased | no increase | significantly increased | did not show any increase
